Experimental data published in US8426568B2 (University of Virginia Patent Foundation, priority 2006, dated 2013).
Values after ≈ are worked out from the molar mass of the structure shown. Where two headings read alike, the source gives them in different places.

Experiments:
[1] = target: recombinant, constitutively active RSK2 (Homo sapiens, UniProt P51812); assay: in vitro RSK kinase assay; format: biochemical; conditions: 10 μM ATP, 30 min, read-out: IC50 for inhibition of RSK catalytic activity in vitro
MCF-7 cells [2] = assay: MCF-7 cell proliferation (CellTiter-Glo); format: cell-based, human; conditions: for inhibition of MCF-7 cell proliferation at 50 μM: 72 h
Procedure: (2A) The potency of purified compounds in inhibiting RSK catalytic activity in vitro was measured. Kinase assays were performed using immobilized substrate. The reactions were initiated by the addition of 10 μM ATP (final concentration). Reactions were terminated after 30 min. All assays measured the initial reaction velocity. The extent of phosphorylation was determined using phosphospecific antibodies in combination with HRP-conjugated secondary antibodies. HRP activity was measured as described in the Experimental. Maximum and minimum activity is the relative luminescence detected in the presence of vehicle and 200 mM EDTA, respectively. Points, mean (n=2 in triplicate); bars=SD. (2B) The potency of purified compounds as inhibitors of MCF-7 cell proliferation was determined. […] Values given are the fold proliferation. Points, mean (n=3 in quadruplicate); bars=SD.
(§1) The cell number was measured after 48 h of treatment. Values given are the fold proliferation as a percentage of that observed with vehicle-treated cells. Points, mean (n=2 in quadruplicate); bars=SD.
(§2) For proliferation studies cells were seeded at 5000 cells per well in 96 well tissue culture plates in the appropriate medium as described by American Type Culture Collection. After 24 hours, the medium was replaced with medium containing compound or vehicle as indicated. Cell viability was measured at indicated time points using CellTiter-Glo™ assay reagent (Promega, Madison, Wis.) according to manufacturer's protocol. Maximum responses and the concentrations of half the effective response (EC50) were determined by performing a best-fit analysis of the data (GraphPad Prism). For specificity studies, cells were seeded at 3×10^5 cells/well in 6 well plates. After 24 hours, the cells were serum-starved for 24 hours then incubated with compound or vehicle for 4 hours prior to a 20 minute treatment with PDB. Cells were lysed with boiling SDS-sample buffer without dithiothreitol (DTT). The lysates were normalized for total protein, and DTT was added to an aliquot, which was electrophoresed and immunoblotted. Antibodies used on cell lysates included anti-pan-MAPK (anti-ERK1/2) (610124) from BD Transduction Laboratories; anti-phospho-MAPK (V8031) from Promega; anti-eEF2 (2332), anti-phospho-eEF2 (2331), anti-phospho-Akt Substrate (9611), anti-phospho-PKA Substrate (9621), and anti-phospho-PKC Substrate (2261) from Cell Signaling Technology. Anti-Ran was a generous gift from Ian Macara (University of Virginia).

RSK = assay: eEF2 phosphorylation in PDB-stimulated MCF-7 cells (RSK activity in intact cells); format: cell-based, human; conditions: serum-deprived MCF-7; 4 h pre-incubation; 500 nM PDB 20 min
Source text: Therefore, the phosphorylation state of eEF2 during mitogenic stimulation is an indicator of RSK activity.

PKA, PKC and AKT = assay: phosphorylation patterns in MCF-7 cells with phospho-PKA, -PKC, -AKT substrate antibodies (specificity); format: cell-based, human; conditions: pre-incubation before PDB
Procedure: MCF-7 cell lysates normalized for protein concentration were electrophoresed, transferred and immunoblotted with anti-phospho-PKA substrate, anti-phospho-PKC substrate or anti-phospho-AKT substrate.
as §2
The lysates were immunoblotted with multiple phospho-specific substrate antibodies.

MCF-10A cells [3] = assay: MCF-10A cell proliferation (CellTiter-Glo); format: cell-based, human; conditions: 48 h treatment
Procedure: as §1
as §2, with “Antibodies used on cell lysates included anti-pan-MAPK (anti-ERK1/2) (610124) from BD Transduction Laboratories; anti-phospho-MAPK (V8031) from Promega; anti-eEF2 (2332), anti-phospho-eEF2 (2331), anti-phospho-Akt Substrate (9611), anti-phospho-PKA Substrate (9621), and anti-phospho-PKC Substrate (2261) from Cell Signaling Technology. Anti-Ran was a generous gift from Ian Macara (University of Virginia).” left out

MAPK = assay: PDB-stimulated MAPK activation in MCF-7 cells (anti-active MAPK immunoblot); format: cell-based, human; conditions: serum-deprived MCF-7; 4 h pre-incubation; 500 nM PDB 20 min
Procedure: (3A) The potency of the synthesized compounds in inhibiting RSK catalytic activity in vitro was measured as described in FIG. 2A and is graphically illustrated. (3B) Represents an images of immunoblots where serum-deprived MCF-7 cells were pre-incubated with vehicle, or the indicated concentration of inhibitor for 4 h. Cells were treated with 500 nM PDB or vehicle for 20 min prior to lysis. Protein concentration of lysates was measured and lysates were electrophoresed, transferred and immunoblotted.
For proliferation studies cells were seeded at 5000 cells per well in 96 well tissue culture plates in the appropriate medium as described by American Type Culture Collection. After 24 hours, the medium was replaced with medium containing compound or vehicle as indicated. Cell viability was measured at indicated time points using CellTiter-Glo™ assay reagent (Promega, Madison, Wis.) according to manufacturer's protocol. Maximum responses and the concentrations of half the effective response (EC50) were determined by performing a best-fit analysis of the data (GraphPad Prism). For specificity studies, cells were seeded at 3×10^5 cells/well in 6 well plates. After 24 hours, the cells were serum-starved for 24 hours then incubated with compound or vehicle for 4 hours prior to a 20 minute treatment with PDB. Cells were lysed with boiling SDS-sample buffer without dithiothreitol (DTT). […]

[4] = maximum solubility in tissue culture media; format: physicochemical; conditions: aqueous buffer
[5] = calculated LogP (Molinspiration Property Calculation Service); conditions: relative to SL0101, from calculated LogP
Procedure: Reagents and solvents were reagent grade and used without further purification. Methylene chloride was distilled from calcium hydride. Anhydrous grade THF was purchased from VWR. All reactions involving air or moisture sensitive reagents or intermediates were performed under a nitrogen or argon atmosphere. Flash chromatography was performed using Silicycle 40-60 mesh silica gel. Analytical TLC was performed using 0.25 mm EM silica gel 60 […] plates that were visualized by irradiation (254 nm) or by staining with Hanessian's stain (cerium molybdate). Optical rotations were obtained using a Jasco digital polarimeter. ^1H and ^13C NMR spectra were obtained using 300 MHz and 500 MHz Varian instruments. Chemical shifts are reported in parts per million (ppm δ) referenced to the residual ^1H resonance of the solvent (CDCl3, 7.26 ppm; DMSO-d6, 2.49 ppm). ^13C spectra were referenced to the residual ^13C resonance of the solvent (CDCl3, 77.3 ppm; DMSO-d6, 39.5 ppm). Splitting patterns are designated as follows: s, singlet; br, broad; d, doublet; dd, doublet of doublets; t, triplet; q, quartet; m, multiplet. High resolution mass spectra were obtained at the Michigan State University-NIH Mass Spectrometry Facility. LogP values were calculated using Molinspiration Property Calculation Service (see their website).

MCF-7 cells [6] = conditions: cited from earlier work
MCF-10A cells [7] = conditions: background; cited from earlier work
[8] = compounds purified from F. refracta

recombinant, constitutively active RSK2, sequence (P51812 1-397 limits assumed): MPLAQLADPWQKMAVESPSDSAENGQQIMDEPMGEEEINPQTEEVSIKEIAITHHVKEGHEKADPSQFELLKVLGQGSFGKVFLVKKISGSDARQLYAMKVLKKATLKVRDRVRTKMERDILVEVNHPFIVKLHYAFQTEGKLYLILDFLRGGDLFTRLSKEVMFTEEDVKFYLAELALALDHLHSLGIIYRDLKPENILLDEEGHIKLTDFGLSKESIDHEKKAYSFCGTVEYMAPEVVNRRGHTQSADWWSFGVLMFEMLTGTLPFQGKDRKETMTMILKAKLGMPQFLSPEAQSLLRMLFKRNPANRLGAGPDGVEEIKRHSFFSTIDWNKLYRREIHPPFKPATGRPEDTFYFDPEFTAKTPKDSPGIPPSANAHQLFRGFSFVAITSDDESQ

CC(=O)OC1C(C)OC(Oc2c(-c3ccc(O)cc3)oc3cc(O)cc(O)c3c2=O)C(OC(C)=O)C1O [2″,4″-di-O-acetyl-SL0101, kaempferol 3-O-(2″,4″-di-O-acetyl-α-L-rhamnopyranoside)]
IC50 [1, 8]: ~260 nM
inhibition of MCF-7 cell proliferation at 50 μM (MCF-7 cells [2]): similarly effective at inhibiting MCF-7 cell growth

N#CC(=C(/N)Sc1ccccc1N)/C(C#N)=C(\N)Sc1ccccc1N [U0126, reference compound]
effect on eEF2 phosphorylation after PDB (RSK): levels of eEF2 phosphorylation also remained increased
effect on phosphorylation patterns (phospho-PKA, -PKC, -AKT substrate antibodies) (PKA, PKC and AKT): PDB-induced phosphorylation is inhibited

CC(=O)OC1C(C)OC(Oc2c(-c3ccc(O)cc3)oc3cc(O)cc(O)c3c2=O)C(O)C1O [4″-mono-O-acetyl-SL0101, kaempferol 3-O-(4″-mono-O-acetyl-α-L-rhamnopyranoside)]
IC50 [1, 8]: ~140 nM
inhibition of MCF-7 cell proliferation at 50 μM (MCF-7 cells [2]): did not inhibit MCF-7 cell proliferation

CCCC(=O)O[C@@H]1[C@@H](OC(=O)CCC)[C@@H](O)[C@H](Oc2c(-c3ccc(O)cc3)oc3cc(O)cc(O)c3c2=O)O[C@H]1C [Bu-SL0101, kaempferol 3-O-(3″,4″-di-O-butyryl-α-L-rhamnopyranoside)]
concentration at which significant inhibition of MCF-10A proliferation began (MCF-10A cells [3]): 100 µM
effect on PDB-induced MAPK activation / upstream kinases (MEK, Raf, PKC) (MAPK): do not inhibit upstream kinases necessary for PDB-induced MAPK activation
IC50 ([1]; synthesized compounds): 212 nM
solubility [4]: ~100 µM (≈ 57.3 µg/mL)
increase in hydrophobicity [5]: > 50 fold
effect on phosphorylation patterns (phospho-PKA, -PKC, -AKT substrate antibodies) (PKA, PKC and AKT): decreased the PDB-induced phosphorylation of a ˜25 kDa protein
specificity for RSK in intact cells (PKA, PKC and AKT): not specific for inhibition of RSK activity
EC50 (MCF-7 cells [2]; Homo sapiens, MCF7, 48 h treatment, read-out: EC50 for inhibition of MCF-7 proliferation): 40000 nM

CC(=O)OC1C(C)OC(Oc2c(-c3ccc(O)cc3)oc3cc(O)cc(O)c3c2=O)C(O)C1OC(C)=O [SL0101, kaempferol 3-O-(3″,4″-di-O-acetyl-α-L-rhamnopyranoside), reference compound]
effect on eEF2 phosphorylation after PDB (RSK): eliminated PDB-mediated inactivation of eEF2K
effect on PDB-induced MAPK activation / upstream kinases (MEK, Raf, PKC) (MAPK): do not inhibit upstream kinases necessary for PDB-induced MAPK activation
proliferation of the human breast cancer cell line MCF-7 (MCF-7 cells [6]; background): inhibits proliferation
EC50 (MCF-7 cells [6]; previously reported (ref 4), current results in agreement, read-out: EC50 for inhibition of MCF-7 cell proliferation): ~50000 nM
growth of the normal human breast line MCF-10A (MCF-10A cells [7]): does not prevent the growth
effect on phosphorylation patterns (phospho-PKA, -PKC, -AKT substrate antibodies) (PKA, PKC and AKT): similar
specificity for RSK in intact cells (PKA, PKC and AKT): demonstrates specificity for RSK in intact cells
inhibition of MCF-7 cell proliferation at 50 μM (MCF-7 cells [2]): similarly effective at inhibiting MCF-7 cell growth
